According to patent US9616006B2, “Methods and compositions for treating dermatological diseases and conditions” (priority 2007, dated 2017):

Assays:
PGE2 [1] = experiment: UV-induced PGE2 production in keratinocytes (ELISA); type: cell-based, human; details: Homo sapiens, Keratinocyte; Keratinocytes (UV); 100 uM; read-out: Percent Inhibition of PGE2
Experimental: (§1) In one study, various concentrations of DHE were added to culture medium and these media were placed on human fibroblast cell cultures (results shown in FIG. 1). Cells were either not induced or induced with UVB radiation to stimulate cytokine/PGE-2 production. At 24 hours after treatment, the cell culture medium was removed and assayed by ELISA methods for the expression of PGE-2, various cytokines and chemokines.
(§2) When similar experiments were carried out with human keratinocytes, DHE was again found to markedly suppress the UVR induction of PGE-2, with a concentration of 50 uM inhibiting the production of PGE-2 by over 60% (results shown in FIG. 2). […] Further, since PGE-2 is known to be a principal factor in the development of actinic keratosis and skin cancer, DHE can also be used in treating these conditions.
(§3) DHE and IE both have inhibitory effects on production of the inflammatory mediators in keratinocytes.

IL-6 [2] = experiment: UV-induced IL-6 production in keratinocytes (ELISA); type: cell-based, human; details: Homo sapiens, Keratinocyte, read-out: Percent Inhibition of IL-6
Experimental: as §1, §2, §3

elastin mRNA = experiment: Elastin mRNA in human dermal fibroblasts by RT-PCR; type: cell-based; details: 72 hours
Source text: The presently claimed and disclosed inventive concept(s) further contemplates use of various DHE, IE and EV compositions and salts, esters, ethers, and derivatives thereof to mitigate the effects of aging on the skin. For all aging studies, normal human fibroblast cell cultures were used. These cells normally produce collagen, elastin and hyaluronic acid. As the skin ages, the fibroblasts in the dermis lose their ability to produce these three key components of skin, and the skin consequently loses elasticity, thickness and smooth texture. […] There are about 13 of these enzymes, collectively referred to as MMPs (matrix metalloproteinases). One of the principal MMPs, MMP-1, is responsible for collagen degradation. […] The image is from an electrophoresis gel of DNA amplified by PCR from fibroblast mRNA. This gel was analyzed and the density of each band quantified by image analysis software.

IL-6 [3] = experiment: UV-induced IL-6 production in fibroblasts (ELISA); type: cell-based, human; details: Homo sapiens, Fibroblast, read-out: Percent Inhibition of IL-6
Experimental: as §1
(§4) DHE and IE both have inhibitory effects on the production of the inflammatory mediators in fibroblasts.

IL-6 [4] = experiment: IL-1-induced IL-6 production in fibroblasts (ELISA); type: cell-based, human; details: Homo sapiens, Fibroblast, Fibroblasts (IL-1), read-out: Percent Inhibition of IL-6
Experimental: as §1, with “Cells were either not induced or induced with UVB radiation to stimulate cytokine/PGE-2 production.” left out
as §4

IL-12 [5] = experiment: TNF-α-induced IL-12 production in monocytes; type: cell-based; details: Monocyte, read-out: Percent Inhibition of IL-12
Source text: (§5) DHE and IE both have inhibitory effects on the production of the inflammatory mediators in monocytes.

PGE2 [6] = experiment: TPA-induced PGE2 production in keratinocytes (ELISA); type: cell-based, human; details: Homo sapiens, Keratinocyte, read-out: Percent Inhibition of PGE2
PGE-2 = experiment: UV-induced PGE-2 production in fibroblasts (ELISA); type: cell-based, human; details: Homo sapiens, Fibroblast; Fibroblasts (UV); 100 uM; read-out: Percent Inhibition of PGE-2
Experimental: as §1
As is shown in FIG. 1, UV radiation (UVR) treatment of fibroblasts results in a 6 fold increase in PGE-2.
as §4

tyrosinase = experiment: Melanin synthesis in vitro from L-DOPA catalyzed by tyrosinase (test tube); type: biochemical
Experimental: Two ml of a sodium phosphate buffer, pH 6.8 containing 0.2% L-DOPA (dihydroxyphenylalanine—a tyrosinase substrate) were placed in each of two test tubes. To one test tube was added 20 microliters of ethanol and to the other tube was added 20 microliters of a 1M stock of IE made up in ethanol (labeled TH-212). To start melanin synthesis from the L-DOPA substrate, 20 microliters of a tyrosinase preparation (0.5 mg/ml) was added to both tubes, the tubes were mixed and left at room temperature. The photograph in FIG. 13 was taken 2 hours after the start of the reaction.

IL-12 [7] = experiment: LPS-induced IL-12 production in monocytes; type: cell-based; details: Monocyte, read-out: Percent Inhibition of IL-12
Source text: as §5

TNF-α [8] = experiment: TPA-induced TNF-α production in keratinocytes (ELISA); type: cell-based, human; details: Homo sapiens, Keratinocyte; Keratinocytes (TPA); 100 uM; read-out: Percent Inhibition of TNF-α
Experimental: as §1, §2
Inflammatory mediators produced in the skin contribute to the development and propagation of such diseases as rosacea, psoriasis and atopic dermatitis. While many inflammatory mediators are involved in these diseases, TNF-α is known to be a major cytokine involved in psoriasis. For atopic dermatitis, TNF-α, IL-8, and MCP-1 are important mediators of inflammation in these diseases. DHE is effective in suppressing the TPA-induced (TPA is tetradecanolyl phorbol ester) production of TNF-α by approximately 50% at a 100 micromolar concentration (results shown in FIG. 3).
as §3

IL-8 = experiment: TPA-induced IL-8 production in keratinocytes (ELISA); type: cell-based, human; details: Homo sapiens, Keratinocyte, read-out: Percent Inhibition of IL-8
MCP-1 = experiment: TNF-α-induced MCP-1 production in monocytes; type: cell-based; details: Monocyte, read-out: Percent Inhibition of MCP-1
Source text: as §5

[9] = tested on: human melanocyte cultures; experiment: Pigment in human melanocyte cultures; type: cell-based; details: treated for 9 days
TNF-α [10] = experiment: UV-induced TNF-α production in keratinocytes (ELISA); type: cell-based, human; details: Homo sapiens, Keratinocyte, read-out: Percent Inhibition of TNF-α
Experimental: as §1, §2, §3

What does the source list for CC=Cc1ccc(O)c(OC)c1 [IE, isoeugenol]?
inhibition at 100 µM (PGE2 [1]): 76%; inhibition at 100 µM (IL-6 [2]): 93%; elastin levels (elastin mRNA) (elastin mRNA): increase; inhibition at 100 µM (IL-6 [3]): 39%; inhibition at 100 µM (IL-6 [4]): 53%; inhibition at 100 µM (IL-12 [5]): 100%; inhibition at 100 µM (PGE2 [6]): 82%; inhibition at 100 µM (PGE-2): 77%; melanin synthesis (tyrosinase; 0.2% L-DOPA, pH 6.8, 20 microliters of 1M stock in 2 ml, tyrosinase, 2 hours, room temperature): almost completely blocked; darkening of test tubes (melanin production) (tyrosinase; tubes containing DOPA, IE and tyrosinase, even after 2 weeks): fail to darken; inhibition at 100 µM (IL-12 [7]): 80%; inhibition at 100 µM (TNF-α [8]): 71%; inhibition at 100 µM (IL-8): 75%; inhibition at 100 µM (MCP-1): 82%; pigment in human melanocyte cultures [9]: loss of pigment; inhibition at 100 µM (TNF-α [10]): 60%
